From DBAASP come the findings set out here.

Test systems include Escherichia coli BL21; Staphylococcus aureus; Escherichia coli UB1005; Streptococcus agalactiae; Escherichia coli K88; Escherichia coli 078; Escherichia coli K99.
Common to all, as to experiment: ≥ marks a high value that may be exact or a test limit, other limits are often not marked, values filed in µg/mL are converted to µM
The test system of experiment [1] is Staphylococcus aureus ATCC 12600.
The subject of experiment [2] is Streptococcus mutans ATCC 25175.
Experiment [3] concerns Pseudomonas aeruginosa ATCC 27853.
Experiment [4] relates to Escherichia coli ATCC 25922.
Experiment [5] deals with Streptococcus pyogenes M1T1 5448.
For experiment [6], the system named is Pseudomonas aeruginosa PAO1.
The test system of experiment [7] is Staphylococcus aureus ATCC 33591.
The subject of experiment [8] is Staphylococcus epidermidis ATCC 51625.
Experiment [9] relates to Acinetobacter baumannii ATCC 17978D-5.
Experiment [10] has as its system Pseudomonas aeruginosa ATCC 19660.
Experiment [11] concerns Streptococcus pneumoniae ATCC 49619.
The subject of experiment [12] is Klebsiella aerogenes ATCC 13048.
The subject of experiment [13] is Enterococcus faecium ATCC 700221.
In experiment [14] the test system is Salmonella enterica subsp. enterica serovar Typhimurium C77-31.
The test system of experiment [15] is Enterococcus faecalis ATCC 29212.
The subject of experiment [16] is Staphylococcus aureus ATCC 43300.
Experiment [17] has as its system Salmonella enterica subsp. enterica serovar Typhimurium ATCC 14028.
The test system of experiment [18] is Staphylococcus aureus ATCC 29213.
The subject of experiment [19] is Staphylococcus epidermidis ATCC 12228.
The test system of experiment [20] is Salmonella enterica subsp. enterica serovar Pullorum C79-13.
Experiment [21] relates to Salmonella enterica subsp. enterica serovar Choleraesuis CVCC 503.
Experiment [22] relates to Staphylococcus aureus ATCC 25923.
For experiment [23], the system named is Bacillus subtilis CMCC 63501.

In brackets after ≈: the same amount, converted by molar mass. Some results are limits rather than exact numbers.

Regarding `CC[C@H](C)[C@H](NC(=O)[C@H](C)NC(=O)CNC(=O)[C@H](Cc1ccccc1)NC(=O)[C@H](CC(C)C)NC(=O)CN)C(=O)N[C@@H](C)C(=O)NCC(=O)N[C@@H](Cc1ccccc1)C(=O)N[C@H](C(=O)N[C@@H](CCCCN)C(=O)NCC(=O)NCC(=O)N[C@@H](Cc1c[nH]c2ccccc12)C(=O)N1CCC[C@H]1C(=O)NCC(=O)N[C@@H](CC(C)C)C(=O)N[C@H](C(=O)N[C@@H](CCCCN)C(=O)NCC(N)=O)C(C)C)[C@@H](C)CC` [GLFGAIAGFIKGGWPGLVKG], the MIC – broadly, the smallest concentration in the dilution series that meets the test's criterion for growth inhibition – in experiment [1] is 16 µM (≈ 31.1 µg/mL); in [2], 11.3 µM (≈ 22 µg/mL); in [3], above 64.3 µM; in experiment [4], 16 µM (≈ 31.1 µg/mL).
For `CC[C@H](C)[C@H](NC(=O)[C@H](Cc1ccccc1)NC(=O)[C@H](C)NC(=O)[C@H](CCCCN)NC(=O)[C@H](CCCCN)NC(=O)[C@H](Cc1c[nH]c2ccccc12)NC(=O)[C@H](CCCN=C(N)N)NC(=O)[C@H](CCCCN)NC(=O)[C@H](CCCN=C(N)N)NC(=O)[C@H](CC(C)C)NC(=O)[C@H](CCC(=O)O)NC(=O)[C@H](CCC(=O)O)NC(=O)[C@H](CC(C)C)NC(=O)[C@H](CC(C)C)NC(=O)[C@H](Cc1ccc(O)cc1)NC(=O)[C@H](CCCCN)NC(=O)[C@@H](NC(=O)[C@H](CC(C)C)NC(=O)[C@H](C)NC(=O)[C@H](CCC(N)=O)NC(=O)[C@H](CCCN=C(N)N)NC(=O)CNC(=O)[C@H](C)N)[C@@H](C)O)C(=O)N[C@@H](C)C(=O)N[C@@H](Cc1c[nH]c2ccccc12)C(=O)O` [AGRQALTKYLLEELRKRWKKAFIAW], the MIC with Escherichia coli BL21 turned out to be 1 µM (≈ 3.08 µg/mL); in experiment [5], 2 µM (≈ 6.15 µg/mL); in experiment [6] it was 64 µM (≈ 197 µg/mL).
Consider `C[C@H](NC(=O)[C@H](Cc1ccccc1)NC(=O)[C@H](C)NC(=O)[C@@H](N)Cc1ccccc1)C(=O)N[C@@H](Cc1ccccc1)C(=O)N[C@@H](CCCCN)C(=O)N[C@@H](C)C(=O)N[C@@H](Cc1ccccc1)C(=O)N[C@@H](CCCCN)C(=O)N[C@@H](CCCCN)C(=O)N[C@@H](C)C(=O)N[C@@H](Cc1ccccc1)C(=O)N[C@@H](CCCCN)C(=O)N[C@@H](CCCCN)C(=O)N[C@@H](Cc1ccccc1)C(=O)N[C@@H](CCCCN)C(=O)N[C@@H](CCCCN)C(=O)N[C@@H](C)C(=O)N[C@@H](Cc1ccccc1)C(=O)N[C@@H](CCCCN)C(=O)N[C@@H](CCCCN)C(=O)N[C@@H](C)C(=O)N[C@@H](Cc1ccccc1)C(=O)NCC(=O)N1CCC[C@H]1C(=O)N[C@@H](CS)C(=O)O` [FAFAFKAFKKAFKKFKKAFKKAFGPC], for which the MIC in [7] was 21.1 µM (≈ 64 µg/mL); in experiment [8] it was 21.1 µM (≈ 64 µg/mL); in experiment [9], 21.1 µM (≈ 64 µg/mL); in experiment [10], 21.1 µM (≈ 64 µg/mL); in experiment [11] it was 21.1 µM (≈ 64 µg/mL); in experiment [3], above 21.1 µM. The MIC in experiment [12] and in experiment [13] was 21.1 µM (≈ 64 µg/mL) in each case.
Turning to `CC[C@H](C)[C@H](N)C(=O)N[C@H](C(=O)N[C@@H](CS)C(=O)N[C@@H](CCCN=C(N)N)C(=O)N[C@@H](CCCCN)C(=O)N1CCC[C@H]1C(=O)N[C@H](C(=O)N[C@H](C(=O)N[C@@H](CS)C(=O)N[C@@H](CCCN=C(N)N)C(=O)N[C@@H](CCCCN)C(=O)N1CCC[C@H]1C(=O)N[C@H](C(=O)N[C@H](C(N)=O)[C@@H](C)CC)[C@@H](C)CC)[C@@H](C)CC)[C@@H](C)CC)[C@@H](C)CC` [IICRKPIICRKPII], the MIC in experiment [14] was at least 32 µM; in [15] it was above 64 µM; in [16], above 64 µM; in the experiment with Staphylococcus aureus, above 64 µM; in experiment [17], 32 µM (≈ 53.3 µg/mL); in the experiment with Escherichia coli UB1005, 16 µM (≈ 26.6 µg/mL). Also, the MIC in experiment [18] is above 64 µM; against Streptococcus agalactiae, at least 64 µM; in experiment [19], above 64 µM; in experiment [4], 16 µM (≈ 26.6 µg/mL); in [20] it was at least 64 µM; in experiment [21], at least 64 µM.
For the compound `CC[C@H](C)[C@H](NC(=O)[C@H](Cc1c[nH]c2ccccc12)NC(=O)[C@H](CCCCN)NC(=O)[C@H](CC(C)C)NC(=O)[C@@H](NC(=O)[C@H](Cc1c[nH]c2ccccc12)NC(=O)CNC(=O)[C@@H](NC(=O)[C@H](CCCCN)NC(=O)[C@H](Cc1c[nH]c2ccccc12)NC(=O)[C@H](CC(C)C)NC(=O)[C@@H](N)CCCN=C(N)N)[C@@H](C)CC)C(C)C)C(N)=O` [RLWKIGWVLKWI], the MIC against Escherichia coli K88 is 2 µM (≈ 3.19 µg/mL); against Escherichia coli 078, 4 µM (≈ 6.39 µg/mL); in [14] it was 16 µM (≈ 25.6 µg/mL); in experiment [15] it was 4 µM (≈ 6.39 µg/mL); in experiment [17] it was 8 µM (≈ 12.8 µg/mL); against Escherichia coli UB1005, 16 µM (≈ 25.6 µg/mL). Further, the MIC in experiment [18] was 8 µM (≈ 12.8 µg/mL); in [22] it was 16 µM (≈ 25.6 µg/mL); in experiment [19] it was 16 µM (≈ 25.6 µg/mL); in experiment [4] it was 16 µM (≈ 25.6 µg/mL); in the experiment with Escherichia coli K99 it was 4 µM (≈ 6.39 µg/mL); in experiment [20] it was 2 µM (≈ 3.19 µg/mL). The same compound showed an MIC in experiment [23] of 2 µM (≈ 3.19 µg/mL).
With `CC(C)[C@H](N)C(=O)N[C@@H](CS)C(=O)N[C@@H](CCCN=C(N)N)C(=O)N[C@@H](CCCCN)C(=O)N1CCC[C@H]1C(=O)N[C@H](C(=O)N[C@H](C(=O)N[C@@H](CS)C(=O)N[C@@H](CCCN=C(N)N)C(=O)N[C@@H](CCCCN)C(=O)N1CCC[C@H]1C(=O)N[C@H](C(N)=O)C(C)C)C(C)C)C(C)C` [VCRKPVVCRKPV], the MIC was at least 64 µM in experiment [14]; above 64 µM in [15]; above 64 µM in experiment [16]; above 64 µM in the experiment with Staphylococcus aureus; above 64 µM in [17]; at least 64 µM against Escherichia coli UB1005. In addition, the minimal inhibitory concentration (MIC) is above 64 µM in experiment [18]; at least 64 µM against Streptococcus agalactiae; above 64 µM in experiment [19]; above 64 µM in experiment [4]; at least 64 µM in [20]; at least 64 µM in experiment [21].
Turning to `CC[C@H](C)[C@H](NC(=O)[C@H](CCCCN)NC(=O)[C@H](C)NC(=O)[C@H](CCCN=C(N)N)NC(=O)[C@H](CC(C)C)NC(=O)[C@H](CCCN=C(N)N)NC(=O)[C@@H](NC(=O)[C@H](CCCCN)NC(=O)[C@@H](NC(=O)[C@H](CCCCN)NC(=O)[C@H](C)NC(=O)[C@H](CCCN=C(N)N)NC(=O)[C@H](CC(C)C)NC(=O)[C@H](CCCCN)NC(=O)[C@H](Cc1ccccc1)NC(=O)CNC(=O)[C@@H](N)CCSC)[C@@H](C)CC)C(C)C)C(=O)N[C@@H](CCCCN)C(=O)N[C@@H](CC(C)C)C(=O)O` [MGFKLRAKIKVRLRAKIKL], the MIC in experiment [7] was 28.2 µM (≈ 64 µg/mL); in experiment [8], 1.76 µM (≈ 4 µg/mL); in experiment [9], 28.2 µM (≈ 64 µg/mL); in experiment [10], 28.2 µM (≈ 64 µg/mL); in [11] it was 28.2 µM (≈ 64 µg/mL); in experiment [3], above 28.2 µM. Also, the MIC in experiment [12] and in [13] was 28.2 µM (≈ 64 µg/mL) each time.
